Measured values published in patent US10450306B2, “Isoxazole analogs as FXR agonists and methods of use thereof” (Enanta Pharmaceuticals, Inc., priority 2016, dated 2019).
Like-named read-outs stand apart in the source and are kept apart here.

Biological target: T1, human FXR (NR1H4) (Homo sapiens, UniProt Q96RI1)
T1 construct: host or cells: CHO (Chinese hamster ovary) reporter cells
T1 sequence (Q96RI1 1-486): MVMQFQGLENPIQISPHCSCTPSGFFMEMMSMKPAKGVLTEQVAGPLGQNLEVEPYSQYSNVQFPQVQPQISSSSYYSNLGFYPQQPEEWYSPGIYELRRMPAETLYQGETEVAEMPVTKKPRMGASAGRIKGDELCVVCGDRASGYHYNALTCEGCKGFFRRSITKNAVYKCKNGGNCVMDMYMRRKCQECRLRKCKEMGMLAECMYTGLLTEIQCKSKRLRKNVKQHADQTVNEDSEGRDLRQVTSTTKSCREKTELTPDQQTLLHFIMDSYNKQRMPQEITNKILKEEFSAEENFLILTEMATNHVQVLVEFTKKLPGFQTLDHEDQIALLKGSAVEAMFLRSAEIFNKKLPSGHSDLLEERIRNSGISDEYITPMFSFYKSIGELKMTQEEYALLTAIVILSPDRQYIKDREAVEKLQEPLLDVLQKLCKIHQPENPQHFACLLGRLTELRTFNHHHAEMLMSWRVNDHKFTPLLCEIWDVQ
Assay: Human FXR (NR1H4) Assay: Gal4 promoter driven luciferase reporter transactivation in CHO cells (Indigo Bioscience kit IB00601); on Efficacy (%): efficacy normalized to CDCA set as 100%
Assay type: cell-based
Outline: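 CHO reporter cells expressing human FXR with an FXR-responsive promoter-driven luciferase were treated with compound dose series at 0.2% DMSO for 22 h at 37 °C. Luciferase activity was then read by luminescence as the measure of FXR activation.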

[1] = Human FXR (NR1H4) reporter assay, potency ranges

## CCOC(=O)c1ccc2nc(N3[C@@H]4CC[C@H]3C[C@@H](N(C)Cc3c(-c5c(Cl)cccc5Cl)noc3C3CC3)C4)sc2c1 [Example 165, ethyl 2-((1R,3R,5S)-3-(((5-cyclopropyl-3-(2,6-dichlorophenyl)isoxazol-4-yl)methyl)(methyl)amino)-8-azabicyclo[3.2.1]octan-8-yl)benzo[d]thiazole-6-carboxylate]
CHO; read-out: Efficacy (%)
  Emax: 236%
[1]
  EC50: 1 to 100 nM

## CC(C)(C)c1ccc(S(=O)(=O)NC(=O)c2ccc3nc(N4C5CCC4CC(NCc4c(-c6c(Cl)cccc6Cl)noc4C4CC4)C5)sc3c2)cc1 (stereo not shown) [Example 284]
CHO; read-out: Efficacy (%)
  Emax: 54%
[1]
  EC50: > 1000 nM

## CC(C)Oc1cc(C(=O)NS(=O)(=O)C2(C)CC2)cc2sc(N3CCC(NCc4c(-c5ccccc5OC(F)(F)F)noc4C4CC4)CC3)nc12 [Example 900-6]
CHO; read-out: Efficacy (%)
  Emax: 112%
[1]
  EC50: 1 to 100 nM

## CN(C)S(=O)(=O)NC(=O)c1ccc2nc(N3C4CCC3CN(Cc3c(-c5c(Cl)cccc5Cl)noc3C3CC3)C4)sc2c1 [Example 280]
CHO; read-out: Efficacy (%)
  Emax: 242%
[1]
  EC50: 1 to 100 nM

## CC(C)(C)c1ccc(S(=O)(=O)NC(=O)c2cccc(N3CCN(Cc4c(-c5c(Cl)cccc5Cl)noc4C4CC4)CC3)c2)cc1 [Example 285]
CHO; read-out: Efficacy (%)
  Emax: 126%
[1]
  EC50: 100 to 1000 nM

## O=C(O)c1cc(F)c2nc(N3C4CCC3CC(NCc3c(-c5ccccc5OC(F)(F)F)noc3C3CC3)C4)sc2c1 (stereo not shown) [Example 404]
CHO; read-out: Efficacy (%)
  Emax: 88%
[1]
  EC50: 1 to 100 nM

## CCOC(=O)c1ccc2nc(N3CCC(NCc4c(-c5c(Cl)cccc5Cl)noc4C4CC4)CC3)sc2c1 [Example 173]
CHO; read-out: Efficacy (%)
  Emax: 116%
[1]
  EC50: > 1000 nM

## O=C(O)c1cc(F)c2nc(N3C4CCC3CC(NCc3c(-c5ccccc5C(F)(F)F)noc3C3CC3)C4)sc2c1 (stereo not shown) [Example 1408]
CHO; read-out: Efficacy (%)
  Emax: 103%
[1]
  EC50: 1 to 100 nM

## O=C(NS(=O)(=O)C1CC1)c1ccc(N2C3CCC2CC(NCc2c(-c4ccccc4OC(F)(F)F)noc2C2CC2)C3)nc1 (stereo not shown) [Example 900-13]
CHO; read-out: Efficacy (%)
  Emax: 59.5%
[1]
  EC50: 1 to 100 nM

## O=C(O)c1ccc2nc(N3C4CCC3CN(Cc3c(-c5c(Cl)cccc5Cl)noc3C3CC3)C4)sc2c1 [Example 176]
CHO; read-out: Efficacy (%)
  Emax: 228%
[1]
  EC50: 100 to 1000 nM

## COc1nc2cc(C(=O)NS(=O)(=O)C3(C)CC3)ccc2nc1N1C2CCC1CC(NCc1c(-c3c(Cl)cccc3Cl)noc1C1CC1)C2 (stereo not shown) [Example 342]
CHO; read-out: Efficacy (%)
  Emax: 76%
[1]
  EC50: 1 to 100 nM

## O=C(O)c1cnc2nc(N3C4CCC3CC(NCc3c(-c5c(Cl)cccc5Cl)noc3C3CC3)C4)sc2n1 (stereo not shown) [Example 200-18]
CHO; read-out: Efficacy (%)
  Emax: 91.3%
[1]
  EC50: 1 to 100 nM

## CC(C)Oc1cc(C(=O)NS(=O)(=O)N2CCCCC2)cc2sc(N3C4CCC3CC(NCc3c(-c5c(Cl)cccc5Cl)noc3C3CC3)C4)nc12 (stereo not shown) [Example 400-20]
CHO; read-out: Efficacy (%)
  Emax: 43.6%
[1]
  EC50: 1 to 100 nM

## COc1cc(C(=O)NCC(=O)O)cc2sc(N3C4CCC3CC(NCc3c(-c5c(Cl)cccc5Cl)noc3C3CC3)C4)nc12 (stereo not shown) [Example 200-11]
CHO; read-out: Efficacy (%)
  Emax: 75%
[1]
  EC50: 1 to 100 nM

## CC1(S(=O)(=O)NC(=O)c2ccc3nc(N4C5CCC4CC(N(C=O)Cc4c(-c6c(Cl)cccc6Cl)noc4C4CC4)C5)sc3c2)CC1 (stereo not shown) [Example 294]
CHO; read-out: Efficacy (%)
  Emax: 130%
[1]
  EC50: > 1000 nM

## O=C(O)c1cc(OC(F)F)c2nc(N3[C@@H]4CC[C@H]3C[C@@H](NCc3c(-c5c(Cl)cccc5Cl)noc3C3CC3)C4)sc2c1 [Example 190, 2-((1R,3r,5S)-3-(((5-cyclopropyl-3-(2,6-dichlorophenyl)isoxazol-4-yl)methyl)amino)-8-azabicyclo[3.2.1]octan-8-yl)-4-(difluoromethoxy)benzo[d]thiazole-6-carboxylic acid]
CHO; read-out: Efficacy (%)
  Emax: 96%
[1]
  EC50: < 1 nM

## O=C(NS(=O)(=O)N1CCOCC1)c1ccc2nc(N3C4CCC3CC(NCc3c(-c5c(Cl)cccc5Cl)noc3C3CC3)C4)sc2c1 (stereo not shown) [Example 234]
CHO; read-out: Efficacy (%)
  Emax: 146%
[1]
  EC50: 100 to 1000 nM

## COC(=O)c1cc(F)c2nc(N3C4CCC3CC(NCc3c(-c5c(Cl)cccc5Cl)noc3C3CC3)C4)sc2c1 (stereo not shown) [Example 3]
CHO; read-out: Efficacy (%)
  Emax: 137%
[1]
  EC50: 1 to 100 nM

## CC1(S(=O)(=O)NC(=O)c2ccc3nc(N4C5CCC4CC(NCc4c(-c6ccccc6C(F)(F)F)noc4C4CC4)C5)sc3c2)CC1 (stereo not shown) [Example 1420]
CHO; read-out: Efficacy (%)
  Emax: 91%
[1]
  EC50: 1 to 100 nM

## O=C(O)c1cc(C2CC2)c2nc(N3C4CCC3CC(NCc3c(-c5c(Cl)cccc5Cl)noc3C3CC3)C4)sc2c1 (stereo not shown) [Example 200-30]
CHO; read-out: Efficacy (%)
  Emax: 108%
[1]
  EC50: < 1 nM

## COc1cc2nc(N3C4CCC3CC(NCc3c(-c5c(Cl)cccc5Cl)noc3C3CC3)C4)sc2cc1C(=O)O (stereo not shown) [Example 200-8]
CHO; read-out: Efficacy (%)
  Emax: 73.5%
[1]
  EC50: < 1 nM

## COC(=O)c1cc(F)c2nc(N3CCC(NCc4c(-c5c(Cl)cccc5Cl)noc4C4CC4)CC3)sc2c1 [Example 200-5]
CHO; read-out: Efficacy (%)
  Emax: 72%
[1]
  EC50: 100 to 1000 nM

## COC(=O)c1ccc2cc(N3[C@@H]4CC[C@H]3C[C@@H](NCc3c(-c5c(Cl)cccc5Cl)noc3C3CC3)C4)ccc2c1 [Example 49, methyl 6-((1R,3R,5S)-3-(((5-cyclopropyl-3-(2,6-dichlorophenyl)isoxazol-4-yl)methyl)amino)-8-azabicyclo[3.2.1]octan-8-yl)-2-naphthoate]
CHO; read-out: Efficacy (%)
  Emax: 135%
[1]
  EC50: 1 to 100 nM

## COC(=O)c1cccc(N2CCN(Cc3c(-c4c(Cl)cccc4Cl)noc3C3CC3)CC2)c1 [Example 187]
CHO, read-out: Efficacy (%)
  Emax: 64%
[1]
  EC50: > 1000 nM

## CC(C)Oc1cc(C(=O)NS(=O)(=O)C2CC2)cc2sc(N3C4CCC3CC(NCc3c(-c5ccccc5C(F)(F)F)noc3C3CC3)C4)nc12 (stereo not shown) [Example 1415]
CHO; read-out: Efficacy (%)
  Emax: 106%
[1]
  EC50: 1 to 100 nM

## O=C(NS(=O)(=O)C(F)(F)F)c1ccc2nc(N3C4CCC3CC(NCc3c(-c5c(Cl)cccc5Cl)noc3C3CC3)C4)sc2c1 (stereo not shown) [Example 236]
CHO; read-out: Efficacy (%)
  Emax: 75%
[1]
  EC50: 1 to 100 nM

## CC1(S(=O)(=O)NC(=O)c2cc(F)c3nc(N4CCC(NCc5c(-c6c(Cl)cccc6Cl)noc5C5CC5)CC4)sc3c2)CC1 [Example 400-10]
CHO; read-out: Efficacy (%)
  Emax: 68%
[1]
  EC50: 100 to 1000 nM

## CN(C)S(=O)(=O)NC(=O)c1ccc2nc(N3CCC(NCc4c(-c5c(Cl)cccc5Cl)noc4C4CC4)CC3)sc2c1 [Example 282]
CHO; read-out: Efficacy (%)
  Emax: 142%
[1]
  EC50: 1 to 100 nM

## O=C(NS(=O)(=O)C1CC1)c1cnc2nc(N3C4CCC3CC(NCc3c(-c5c(Cl)cccc5Cl)noc3C3CC3)C4)sc2n1 (stereo not shown) [Example 400-25]
CHO; read-out: Efficacy (%)
  Emax: 72%
[1]
  EC50: 1 to 100 nM

## COC(=O)c1cc2sc(N3C4CCC3CC(NCc3c(-c5c(Cl)cccc5Cl)noc3C3CC3)C4)nc2cc1F (stereo not shown) [Example 200-15]
CHO; read-out: Efficacy (%)
  Emax: 75.8%
[1]
  EC50: 1 to 100 nM

## COC(=O)c1cc(C)c2nc(N3C4CCC3CC(NCc3c(-c5c(Cl)cccc5Cl)noc3C3CC3)C4)sc2c1 (stereo not shown) [Example 7]
CHO; read-out: Efficacy (%)
  Emax: 37%
[1]
  EC50: 1 to 100 nM

## Cc1c(C(=O)NS(=O)(=O)N2CCCCC2)ccc2nc(N3C4CCC3CC(NCc3c(-c5c(Cl)cccc5Cl)noc3C3CC3)C4)sc12 (stereo not shown) [Example 400-14]
CHO; read-out: Efficacy (%)
  Emax: 119%
[1]
  EC50: < 1 nM

## CC1(S(=O)(=O)NC(=O)c2cc(F)c3nc(N4C5CCC4CC(NCc4c(-c6c(Cl)cccc6Cl)noc4C4CC4)C5)sc3c2)CC1 (stereo not shown) [Example 295]
CHO; read-out: Efficacy (%)
  Emax: 152%
[1]
  EC50: 1 to 100 nM

## CCOc1cc(C(=O)NS(=O)(=O)N2CCCCC2)cc2sc(N3C4CCC3CC(NCc3c(-c5c(Cl)cccc5Cl)noc3C3CC3)C4)nc12 (stereo not shown) [Example 400-16]
CHO; read-out: Efficacy (%)
  Emax: 87.3%
[1]
  EC50: < 1 nM

## Cc1cc(C(=O)O)cc2sc(N3C4CCC3CC(NCc3c(-c5ccccc5C(F)(F)F)noc3C3CC3)C4)nc12 (stereo not shown) [Example 1405]
CHO; read-out: Efficacy (%)
  Emax: 125%
[1]
  EC50: 1 to 100 nM

## O=C(NS(=O)(=O)C1CC1)c1ccc2nc(N3C4CCC3CC(NCc3c(-c5c(Cl)cccc5Cl)noc3C3CC3)C4)sc2c1 (stereo not shown) [Example 201]
CHO; read-out: Efficacy (%)
  Emax: 282%
[1]
  EC50: < 1 nM

## O=C(O)CNC(=O)c1cc(F)c2nc(N3C4CCC3CC(NCc3c(-c5c(Cl)cccc5Cl)noc3C3CC3)C4)sc2c1 (stereo not shown) [Example 96]
CHO; read-out: Efficacy (%)
  Emax: 136%
[1]
  EC50: 1 to 100 nM

## CN(c1nc2ccc(C(=O)NS(=O)(=O)N(C)C)cc2s1)C1CCC(OCc2c(-c3c(Cl)cccc3Cl)noc2C2CC2)CC1 (stereo not shown) [Example 279]
CHO; read-out: Efficacy (%)
  Emax: 158%
[1]
  EC50: 100 to 1000 nM

## CC(C)Oc1cc(C(=O)NS(=O)(=O)C2(C)CC2)cc2sc(N3C4CCC3CC(NCc3c(-c5c(F)cccc5F)noc3C3CC3)C4)nc12 (stereo not shown) [Example 1428]
CHO; read-out: Efficacy (%)
  Emax: 86%
[1]
  EC50: 1 to 100 nM

## COC(=O)c1cc2sc(N3C4CCC3CC(NCc3c(-c5c(Cl)cccc5Cl)noc3C3CC3)C4)nc2c2ccccc12 (stereo not shown) [Example 200-27]
CHO; read-out: Efficacy (%)
  Emax: 28.3%
[1]
  EC50: 1 to 100 nM

## CC(C)(C)c1ccc(S(=O)(=O)NC(=O)c2ccc3nc(N4C5CCC4CC(NCc4c(-c6c(Cl)cccc6Cl)noc4C4CC4)C5)sc3c2)cc1 (single isomer, unassigned) [Example 262]
CHO; read-out: Efficacy (%)
  Emax: 289%
[1]
  EC50: < 1 nM

## Cc1cc(C(=O)NS(=O)(=O)C2(C)CC2)cc2sc(N3C4CCC3CC(NCc3c(-c5ccccc5C(F)(F)F)noc3C3CC3)C4)nc12 (stereo not shown) [Example 1406]
CHO; read-out: Efficacy (%)
  Emax: 133%
[1]
  EC50: < 1 nM

## O=C(O)c1ccc2cc(N3C4CCC3CC(NCc3c(-c5c(Cl)cccc5Cl)noc3C3CC3)C4)ccc2c1 (stereo not shown) [Example 50]
CHO; read-out: Efficacy (%)
  Emax: 186%
[1]
  EC50: < 1 nM

## O=C(NS(=O)(=O)N1CCCC1)c1ccc2nc(N3C4CCC3CC(NCc3c(-c5c(Cl)cccc5Cl)noc3C3CC3)C4)sc2c1 (stereo not shown) [Example 227]
CHO; read-out: Efficacy (%)
  Emax: 256%
[1]
  EC50: < 1 nM
